This is an account of results in PubChem BioAssay (NCI).

Where “and” joins values, the source holds several entries; their conditions need not be identical. Equal values may be shown once.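 Interpolation was linear, between the two tested concentrations surrounding the appropriate level; five concentrations were tested over 48 hours in 96-well plates. Here, GI50 denotes the concentration required for 50% inhibition of growth. TGI: concentration producing complete growth inhibition.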 Some results are limits rather than exact numbers.

Some test systems named below: CAKI-1 renal; A549 NSCLC; CCRF-CEM leukemia; OVCAR-5 ovarian; COLO 205 colon; SW-620 colon; A498 renal; NCI/ADR-RES ovarian; SK-MEL-2 melanoma; SNB-75 CNS.
Assay in all cases: NCI anticancer screen, dose series, 48 h

With `Cc1cc(=O)oc2c(C)c(O)ccc12`, the TGI in the assay with CAKI-1 renal, with A549 NSCLC, with CCRF-CEM leukemia, with OVCAR-5 ovarian, in the assay on COLO 205 colon and in the assay on SW-620 colon was over 100 µM in each case. Further, the TGI with A498 renal, in the assay with NCI/ADR-RES ovarian, in the assay with SK-MEL-2 melanoma and with SNB-75 CNS was over 100 µM in each case.
Turning to `Cc1ccc(Cc2cnc(NC(=O)/C=C/c3cccc(C)c3)s2)cc1`, the GI50 with CAKI-1 renal is 0.0663 µM; in the assay on A549 NSCLC, 0.29 µM; in the assay with CCRF-CEM leukemia it was 0.0893 µM; in the assay on OVCAR-5 ovarian, 0.492 µM; with COLO 205 colon, 0.355 µM; with SW-620 colon, 0.0731 µM. Besides, the GI50 with A498 renal is 0.277 µM; with NCI/ADR-RES ovarian it was 0.135 µM; with SK-MEL-2 melanoma, 1.68 µM; in the assay on SNB-75 CNS, 0.104 µM. The TGI with CAKI-1 renal was 11 µM; in the assay with A549 NSCLC, over 67.7 µM; in the assay on CCRF-CEM leukemia it was over 53.6 µM; with OVCAR-5 ovarian it was over 70.8 µM; in the assay on COLO 205 colon, over 100 µM; in the assay with SW-620 colon it was over 100 µM. Further, the TGI in the assay with A498 renal was 3.14 µM; with NCI/ADR-RES ovarian, 2.06 µM; in the assay on SK-MEL-2 melanoma it was over 100 µM; in the assay on SNB-75 CNS, 0.845 µM.
As for `Cc1cc(O)cc2c1[C@]1(C)CCC3C(C)(C)CCC[C@]3(C)[C@H]1C2` (stereo partly drawn), the GI50 in the assay with CAKI-1 renal was 18.1 µM; in the assay on A549 NSCLC, 22.7 µM; in the assay on CCRF-CEM leukemia, 29.6 µM; in the assay with OVCAR-5 ovarian it was 21.4 µM; in the assay with COLO 205 colon, 18.8 µM; in the assay with SW-620 colon, 18.5 µM. Also, the GI50 with A498 renal was 23.2 µM; in the assay on NCI/ADR-RES ovarian, 21.4 µM; in the assay on SK-MEL-2 melanoma it was 26.2 µM; in the assay with SNB-75 CNS it was 17.9 µM. Besides, the TGI came out at 31.9 µM in the assay on CAKI-1 renal; 42.1 µM in the assay on A549 NSCLC; 92 µM in the assay with CCRF-CEM leukemia; 37.2 µM with OVCAR-5 ovarian; 34 µM in the assay with COLO 205 colon; 33.6 µM in the assay with SW-620 colon. In addition, the TGI is 39.1 µM in the assay on A498 renal, 39.8 µM with NCI/ADR-RES ovarian, 52.7 µM in the assay on SK-MEL-2 melanoma and 34.2 µM in the assay with SNB-75 CNS.
Turning to `C=C(CN1CCN(c2cccc(C(F)(F)F)n2)CC1)c1ccc(C(=O)Nc2ccccc2N)cc1`, the GI50 is 0.512 µM and 0.52 µM in the assay on CAKI-1 renal; 3.33 µM and 0.39 µM in the assay on A549 NSCLC; 0.278 µM in the assay on CCRF-CEM leukemia; 0.712 µM and 3.63 µM in the assay on OVCAR-5 ovarian; 3.34 µM and 0.907 µM in the assay on COLO 205 colon; 0.528 µM and 0.416 µM in the assay with SW-620 colon. Besides, the GI50 in the assay with A498 renal is 0.875 µM and 0.261 µM; in the assay on NCI/ADR-RES ovarian, 0.641 µM and 0.4 µM; in the assay with SK-MEL-2 melanoma it was 5.65 µM and 0.851 µM; in the assay on SNB-75 CNS it was 0.673 µM and 0.21 µM. In addition, the TGI is > 100 µM and 25.7 µM with CAKI-1 renal; over 100 µM in the assay on A549 NSCLC; over 100 µM in the assay on CCRF-CEM leukemia; over 100 µM in the assay with OVCAR-5 ovarian; over 100 µM in the assay with SW-620 colon; over 100 µM in the assay with NCI/ADR-RES ovarian. Also, the TGI is 41.5 µM and > 58 µM in the assay on SK-MEL-2 melanoma; 12.2 µM and 2.19 µM in the assay on SNB-75 CNS.
As to `CCC(=O)Nc1ccccc1C#C/C=C\C#Cc1ccccc1SC`, the GI50 was 5.18 µM with CAKI-1 renal; 3.35 µM in the assay on A549 NSCLC; 2.75 µM in the assay with CCRF-CEM leukemia; 33.3 µM in the assay on OVCAR-5 ovarian; 9.84 µM in the assay on COLO 205 colon; 4.62 µM with SW-620 colon. Besides, the GI50 with A498 renal is 15.1 µM; in the assay with NCI/ADR-RES ovarian it was 5.15 µM; in the assay on SK-MEL-2 melanoma, 0.0742 µM; in the assay on SNB-75 CNS, 4.76 µM. Also, the TGI is over 100 µM in the assay with CAKI-1 renal; over 100 µM with A549 NSCLC; 23.7 µM in the assay with CCRF-CEM leukemia; over 100 µM in the assay on OVCAR-5 ovarian; over 100 µM with COLO 205 colon; over 100 µM in the assay with SW-620 colon. Further, the TGI in the assay on A498 renal was over 100 µM; in the assay on NCI/ADR-RES ovarian, 65.2 µM; in the assay on SK-MEL-2 melanoma, 3.83 µM; in the assay with SNB-75 CNS, over 100 µM.
In the case of `CCN(Cc1ccccc1)c1ccc(CO)c(Cl)c1`, the GI50 with CAKI-1 renal is 0.845 µM; with A549 NSCLC it was 2.18 µM; with CCRF-CEM leukemia it was 23.3 µM; with OVCAR-5 ovarian, 0.164 µM; in the assay on COLO 205 colon, 1.74 µM; in the assay with SW-620 colon, 1.27 µM. Moreover, the GI50 in the assay with A498 renal is 0.042 µM; in the assay with NCI/ADR-RES ovarian it was 14.4 µM; in the assay on SK-MEL-2 melanoma it was 3.79 µM; in the assay with SNB-75 CNS, 13.6 µM. The TGI with CAKI-1 renal was 21.4 µM; in the assay on A549 NSCLC it was 25.4 µM; in the assay with CCRF-CEM leukemia, over 100 µM; with OVCAR-5 ovarian it was 0.593 µM; with COLO 205 colon it was 4.51 µM; in the assay on SW-620 colon, over 100 µM. Further, the TGI worked out at 0.169 µM in the assay on A498 renal, 56.8 µM in the assay with NCI/ADR-RES ovarian, 24.7 µM in the assay with SK-MEL-2 melanoma and 69.7 µM in the assay on SNB-75 CNS.
Turning to `Cc1ccc2c(-c3ccnc(Nc4ccccc4)n3)c(-c3ccc(F)cc3)nn2n1`, the GI50 in the assay with CAKI-1 renal is 1.41 µM; with A549 NSCLC it was 5.28 µM; with CCRF-CEM leukemia, 5.81 µM; with OVCAR-5 ovarian, 8.25 µM; in the assay with COLO 205 colon, 11.1 µM; with SW-620 colon it was 8.37 µM. The GI50 with A498 renal was 4.78 µM; with NCI/ADR-RES ovarian, 6.64 µM; in the assay with SK-MEL-2 melanoma, 7.67 µM; in the assay with SNB-75 CNS, over 8.35 µM. Further, the TGI with CAKI-1 renal, in the assay on A549 NSCLC, with CCRF-CEM leukemia, with OVCAR-5 ovarian, in the assay with COLO 205 colon and in the assay on SW-620 colon was over 25 µM in each case. The TGI was 21.5 µM in the assay with A498 renal, over 25 µM in the assay on NCI/ADR-RES ovarian, 17.4 µM in the assay with SK-MEL-2 melanoma and over 25 µM with SNB-75 CNS.
